Data: patent US8841274B2, “Protein arginine N-methyltransferase-5 method of cancer treatment” (priority 2009, dated 2014)

What was measured:
Type in all cases: cell-based
[1] = system: MEFs; assay: Apoptosis by FACS in MEFs; settings: MEFs (normal non-cancer cells), 72 h; n=3
Procedure: PRMT5 (P) or control (C) non-targeting siRNA was transfected into MEFs and cells harvested at 72 h post-transfection as indicated. Cell extracts were immunoblotted with anti-PRMT5 and anti-E2F-1. Actin levels served as the loading control.
MEFs were treated as described in 6c and thereafter analysed by FACS. In FIG. 6d the black bar represents the effect of C siRNA, and clear bar the effect of P siRNA; n=3.
(§1) Cells were transfected with the indicated expression vectors together with pBB14-GFP (for 48 h) to monitor transfection efficiency or siRNA (for 48 h or 72 h) with or without treatment of the DNA damage agent for the last 16 h. Then, cells were fixed and stained with propidium iodide and analyzed by Flow Cytometry.

[2] = system: p73-luciferase or cyclinE-luciferase; assay: Reporter assay with E2F-responsive promoters; settings: U2OS cells, PRMT5 vs control siRNA, 48 h
Procedure: To further explore the role of arginine methylation in the transcription properties of E2F-1, wild-type E2F-1 was compared with the KK and KKK mutants in a reporter-based transfection assay, using E2F-responsive promoters derived from E2F target genes. The assay was performed under conditions in which each mutant protein was expressed at an equivalent level to wild-type E2F-1 (FIG. 4aii and bii), thus ruling out any difference in activity that could be attributed to protein levels. […] FIGS. 4a and b show the transcription properties of wild-type E2F-1, KK and KKK mutants. U2OS cells were transfected with expression vectors encoding WT or mutant E2F-1 protein, together with p73-luciferase (A) or cyclinE-luciferase (B) for 48 h as indicated, and pCMV-βgal to monitor transfection efficiency. Relative luciferase activity (luciferase/βgal) is shown together with expression level of ectopic proteins; n=3. […] PRMT5 (P) or control (C) non-targeting siRNA was transfected into U2OS cells together with p73-luciferase (i) or cyclinE-luciferase (ii) for 48 h, together with pCMV-βgal to monitor transfection efficiency. Relative luciferase activity is shown together with expression level of the ectopic proteins.
Cells were transfected with expression vectors (1 μg) encoding WT or the mutant E2F-1 proteins as indicated with E2F responsive luciferase reporters, namely p73-luciferase or cyclinE-luciferase, together with pCMV-βgal to monitor transfection efficiency. Cells were harvested, lysed 48 h post-transfection and luciferase activity measured as previously described (Janson et al 2008).

[3] = system: HCT116 p53−/−; assay: Apoptosis (sub-G1) by FACS in HCT116 p53−/− cells; settings: siRNA 25 nM, 72 h, n=3
Procedure: (§2) PRMT5 (P) or control (C) non-targeting siRNA (25 nM) was transfected into HCT116 p53+/+ (i), HCT116 p53−/− (ii) or U2OS (iii) cells and the cells were harvested 72 h post-transfection and analysed by FACS. The graph represents the actual number of sub-G1 cells in the indicated conditions, and the immunoblot the level of PRMT5 and actin control; n=3.
as §1

[4] = system: C33A cells; assay: Apoptosis upon PRMT5 depletion in C33A cells; settings: PRMT5 vs control siRNA
Procedure: (§3) The graph (i) represents the relative number of sub-G I cells (compared to the control treatment) in the indicated conditions; and (ii) the level of PRMT5 and E2F-1; n=3.
Cleaved PARP is indicated by the arrow.
as §1

[5] = system: SAOS2; assay: Apoptosis (sub-G1) by FACS in SAOS2 cells with ectopic E2F-1; settings: SAOS2 with wild-type E2F-1 expression vector 1 μg, 72 h; n=3
Procedure: PRMT5 (P) or control (C) non-targeting siRNA was transfected into SAOS2 together with an expression vector encoding wild-type E2F-1 (1 μg) as indicated, harvested at 72 h and processed as described in (a); n=3. […] This is consistent with the idea that PRMT5 mediates its effects through E2F-1.
as §1

[6] = system: HCT116 p53+/+; assay: Apoptosis (sub-G1) by FACS in HCT116 p53+/+ cells; settings: siRNA 25 nM, 72 h, n=3
Procedure: as §2, §1

[7] = system: U2OS cells; assay: Apoptosis (sub-G1) by FACS in U2OS cells; settings: n=3
Procedure: Whether arginine methylation influences E2F-1-dependent apoptosis was investigated by comparing the ability of wild-type E2F-1 to the KK and KKK mutants to induce cells with a sub-G1 DNA content (Stevens et al 2003). […] U2OS cells were transfected with expression vectors encoding wild-type E2F-1, KK and KKK as indicated for 48 h and analysed by FACS as described. The graph represents the relative change in sub-G1 populations compared to the empty vector control treatment; n=2.
as §3, §2
PRMT5 (P), E2F-1 (E) or control (C) non-targeting siRNA was transfected into U2OS cells and harvested 72 h post-transfection and analysed by FACS as described.
as §1

[8] = biological target: PRMT5 (Homo sapiens, UniProt O14744); assay: Ubiquitination assay in U2OS cells after siRNA; parameters: The indicated GST proteins were incubated with U2OS cell lysate; endogenous in cells; host or cells: U2OS; settings: PRMT5 vs control siRNA, MG132 20 nM 4 h
Sequence of PRMT5 (Homo sapiens, UniProt O14744) (O14744 whole entry): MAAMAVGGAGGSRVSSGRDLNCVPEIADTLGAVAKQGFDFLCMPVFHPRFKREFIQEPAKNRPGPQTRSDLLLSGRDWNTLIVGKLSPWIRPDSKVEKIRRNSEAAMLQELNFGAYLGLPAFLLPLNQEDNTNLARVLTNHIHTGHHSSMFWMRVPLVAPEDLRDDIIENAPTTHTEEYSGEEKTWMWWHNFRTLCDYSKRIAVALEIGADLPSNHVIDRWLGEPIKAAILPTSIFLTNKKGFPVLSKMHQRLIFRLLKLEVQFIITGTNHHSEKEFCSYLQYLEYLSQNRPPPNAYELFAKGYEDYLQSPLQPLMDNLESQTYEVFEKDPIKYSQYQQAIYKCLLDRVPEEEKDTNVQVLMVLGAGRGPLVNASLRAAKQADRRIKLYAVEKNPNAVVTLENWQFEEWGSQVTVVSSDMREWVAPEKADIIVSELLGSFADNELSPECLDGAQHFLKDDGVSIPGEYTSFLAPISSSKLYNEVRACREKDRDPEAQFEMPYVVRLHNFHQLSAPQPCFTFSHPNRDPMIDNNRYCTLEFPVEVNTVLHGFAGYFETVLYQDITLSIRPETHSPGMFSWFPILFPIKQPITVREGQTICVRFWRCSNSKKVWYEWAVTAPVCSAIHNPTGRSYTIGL
Procedure: U2OS cells were transfected with PRMT5 (P) or control (C) siRNA. After 24 h, cells were transfected with expression vectors encoding wild-type (WT) E2F-1 or the KKK mutant (2 μg) and His 6-ubiquitin (4 μg) as indicated. Cells were treated with MG132 ([…]) for 4 h before being collected. Cell lysates and Ni2+ pull-down eluates were analysed as described. Quantitation of ubiquitin signals was performed using ImageJ 1.43u, and the input protein levels are shown underneath.
Cells were transfected with pcDNA3.1a-ubiquitin (His-tagged) and treated as described. Briefly cells were harvested into 8 M urea, 0.1 M Na2HPO4/NaH2PO4, 0.01 M Tris-HCl, and pH 8.0. Cell lysate was incubated with nickel (Ni^2+-NTA)-agarose beads (Qiagen), 5 mM imidazole and 10 mM β-mercapthoethanol overnight at 4° C. The beads were collected and washed as described (Liu and Warbrick, 2006). Bound proteins were then eluted and assayed by immunoblotting.

[9] = system: PRMT5; assay: PRMT5 depletion by siRNA in U2OS cells, E2F-1 and E2F target gene levels
Source text: The depletion of PRMT5 co-incided with increased levels of E2F-1 protein (FIG. 3c), which is compatible with the increased level and stability of the KK and KKK mutants (FIG. 3b). […] Extracts were immunoblotted with anti-PRMT5 and E2F-1, and GAPDH levels served as a loading control.
Further, E2F-1 RNA was higher under conditions of PRMT5 depletion, contrasting with the control siRNA treatment. […] RNA was extracted from cells treated as described above, and RNA levels of E2F-1 examined. RNA levels of 18S and GAPDH served as controls. […] Extracts were immunoblotted with anti-PRMT5, E2F-1, p73, Chk2, Chk1 and Cdc2 as indicated. Levels of GAPDH served as the loading control.
FIGS. 6f and 6g address the role of one of the key E2F target genes in the PRMT5 dependent apoptosis, i.e. p73. […] PRMT5 (P) or control (C) siRNA was transfected into U2OS cells and cells harvested at 72 h post-transfection. Both RNA (i) and protein (ii) levels were measured, as indicated, for p73, 18S and GAPDH (i) and PRMT5, E2F-1, p73 and GAPDH (ii). […] This experiment supports activation of the E2F1 pathway leading to apoptosis upon PRMT5 knockdown, i.e. PRMT5 normally acts to suppress activation of the pathway.
Oligofectamine transfection reagent (Invitrogen) was used to transfect cells with siRNAs for 72 h. siRNA treatment of cells was carried out using siRNA non-targeting (Dharmacon) as control or PRMT5 (5′ […] (SEQ ID NO:1)). p73 smart pool siRNA was from Dharmacon. siRNA treatment was for 72 h at 50 nM.

“5′ CCGCUAUUGCACCUUGGAA (SEQ ID NO:1) [PRMT5 siRNA]” was tested. Which apoptosis [1] did it give?
The apoptosis was “no apoptosis”.

And the “activity of E2F-1 responsive promoters” value [2]?
Its value is “more active”.

What about the “apoptosis (% sub-G1 cells)” value [3] of the same substance?
Its value is “induces apoptosis”.

What about the apoptosis [4] of the same substance?
Its apoptosis is “increased level of apoptosis”.

And the apoptosis [5]?
Its apoptosis is “enhanced levels of apoptosis”.

What about the “apoptosis (% sub-G1 cells)” value [6] of the same substance?
The value was “induces apoptosis”.

What about the “apoptosis (sub-G1 cells)” value ([7]; U2OS cells, 72 h post-transfection, with or without etoposide 10 μM 16 h) of the same substance?
Its value is “increased level of apoptosis”.

And the “apoptosis (% sub-G1 cells)” value ([7]; U2OS, siRNA 25 nM, 72 h)?
Its value is “induces apoptosis”.

What about the E2F-1 ubiquitination [8] of the same substance?
The E2F-1 ubiquitination was “affects the ubiquitination of E2F-1”.

What about the E2F-1 protein levels ([9]; 72 h, with or without etoposide 10 μM) of the same substance?
The E2F-1 protein levels was “increases E2F-1 protein levels”.

And the “protein levels of E2F target genes (p73, Chk1, Chk2, Cdc2)” value ([9]; 72 h, with or without etoposide or doxorubicin)?
The value was “induced”.

And the “p73 RNA and protein levels” value ([9]; 72 h post-transfection)?
Its value is “upregulated”.

And the “E2F-1 RNA levels” value ([9]; contrasting with control siRNA)?
Its value is “higher”.
